Reference: patent publication US20100292214A1, “Compounds with Antiparasitic Activity, Applications thereof to the Treatment of Infectious Diseases Caused by Apicomplexans” (commissariat a l'Energie Atomique, priority 2007, published 2010)
Counter-ions that a name gives are not always drawn. Like-named read-outs stand apart in the source and are kept apart here.

Tests used:
[1] = system: asynchronous 3D7 chloroquine-sensitive P. falciparum infected red blood cells; assay: Labeled hypoxanthine incorporation assay (in vitro anti-malarial activity); format: cell-based; settings: Plasmodium falciparum, 3D7, Erythrocyte, read-out: IC50 assessed on Plasmodium Falciparum
[2] = system: Toxoplasma gondii RH-β1 strain; assay: microbe, parasite or virus in culture; format: cell-based; settings: Toxoplasma gondii, read-out: IC50 assessed on Toxoplama Gondii
[3] = 3D7 chloroquine-sensitive strain, infected RBC, 48 h contact, [3H]-hypoxanthine incorporation, two independent experiments in duplicates

Row | Structure (SMILES) | IC50 [1, 3] [nM] | IC50 [2] [nM] | IC50 [1] [nM]
1 | O=C(OC[C@@H]1CCCN1Cc1ccccc1)N1CCC(n2c(=O)[nH]c3ccccc32)CC1 [Compound 42, ((S)-1-benzylpyrrolidin-2-yl)methyl 4-(1,2-dihydro-2-oxobenzo[d]imidazol-3-yl)piperidine-1-carboxylate] | 18800 | 5000 | 
2 | C[C@@H](COC(=O)N1CCC(N(c2ccccc2)S(=O)(=O)c2cccs2)CC1)N(Cc1ccccc1)Cc1ccccc1 [Compound 159, (S)-2-(dibenzylamino)propyl 4-(N-phenylthiophen-2-ylsulfonamido)piperidine-1-carboxylate] | 861 | 1000 | 
3 | CC(C)C[C@@H](COC(=O)N1CCC(n2c(=O)[nH]c3ccccc32)CC1)N(Cc1ccccc1)Cc1ccccc1 [Compound 108, (S)-2-(dibenzylamino)-4-methylpentyl 4-(1,2-dihydro-2-oxobenzo[d]imidazol-3-yl)piperidine-1-carboxylate] | 2610 | 3750 | 
4 | Oc1cc(Cl)ccc1Oc1ccc(Cl)cc1Cl [Triclosan, reference compound] |  | 320 | 1550
5 | C[C@@H](COC(=O)N1CCC(Nc2ccc(I)cc2)CC1)N(Cc1ccccc1)Cc1ccccc1 [Compound 85, (S)-2-(dibenzylamino)propyl 4-(4-iodophenylamino)piperidine-1-carboxylate] |  | 7650 | 8090
6 | C[C@@H](COC(=O)N1CCC(n2c(=O)n(CC3CCCCC3)c3ccccc32)CC1)N(Cc1ccccc1)Cc1ccccc1 [Compound 72, (S)-2-(dibenzylamino)propyl 4-(1-(cyclohexylmethyl)-1,2-dihydro-2-oxobenzo[d]imidazol-3-yl)piperidine-1-carboxylate] | 1030 | 1570 | 
7 | O=C(OCCN(Cc1ccccc1)Cc1ccc([N+](=O)[O-])cc1)N1CCC(n2c(=O)[nH]c3ccccc32)CC1 [Compound 98, 2-(N-(4-nitrobenzyl)-N-benzylamino)ethyl 4-(1,2-dihydro-2-oxobenzo[d]imidazol-3-yl)piperidine-1-carboxylate] | 3040 | 3330 | 
8 | O=c1[nH]c2ccccc2n1C1CCN(C(=S)OCCN(Cc2ccccc2)Cc2ccccc2)CC1 [Compound 46, O-2-(dibenzylamino)ethyl 4-(1,2-dihydro-2-oxobenzo[d]imidazol-3-yl)piperidine-1-carbothioate] | 2840 | 181 | 
9 | COc1ccc(S(=O)(=O)N(c2ccccc2)C2CCN(C(=O)OC[C@H](C)N(Cc3ccccc3)Cc3ccccc3)CC2)cc1 [Compound 156, (S)-2-(dibenzylamino)propyl 4-(N-phenyl-4-methoxyphenylsulfonamido)piperidine-1-carboxylate] | 783 | 4000 | 
10 | C[C@@H](COC(=O)N1CCCC1Cn1c(=O)[nH]c2ccccc21)N(Cc1ccccc1)Cc1ccccc1 (stereo partly drawn) [Compound 23, (S)-2-(dibenzylamino)propyl 2-((1,2-dihydro-2-oxobenzo[d]imidazol-3-yl)methyl)pyrrolidine-1-carboxylate] | 7270 | 3100 | 
11 | COc1cc(NC2CCN(C(=O)OC[C@H](C)N(Cc3ccccc3)Cc3ccccc3)CC2)cc(OC)c1OC [Compound 83, (S)-2-(dibenzylamino)propyl 4-(3,4,5-trimethoxyphenylamino)piperidine-1-carboxylate] | 3090 | 16000 | 
12 | O=C(OCCCN(Cc1ccccc1)Cc1ccccn1)N1CCC(n2c(=O)[nH]c3ccccc32)CC1 [Compound 135, 3-(benzyl(pyridin-2-ylmethyl)amino)propyl 4-(2-oxo-2,3-dihydro-1H-benzo[d]imidazol-1-yl)piperidine-1-carboxylate hydrochloride] | 3600 | 2300 | 
13 | C[C@@H](COC(=O)N1CCCC(n2c(=O)[nH]c3ccccc32)C1)N(Cc1ccccc1)Cc1ccccc1 (stereo partly drawn) [Compound 16, (S)-2-(dibenzylamino)propyl 3-(1,2-dihydro-2-oxobenzo[d]imidazol-3-yl)piperidine-1-carboxylate] | 2810 | 2350 | 
14 | C[C@@H](COC(=O)N1CCC(N(c2ccccc2)S(=O)(=O)c2ccc(F)cc2)CC1)N(Cc1ccccc1)Cc1ccccc1 [Compound 155, (S)-2-(dibenzylamino)propyl 4-(N-phenyl-4-fluorophenylsulfonamido)piperidine-1-carboxylate] | 617 | 800 | 
15 | C[C@@H](COC(=O)N1CCC(n2c(=O)[nH]c3cc4ccccc4cc32)CC1)N(Cc1ccccc1)Cc1ccccc1 [Compound 12, (S)-2-(dibenzylamino)propyl 4-(1,2-dihydro-2-oxonaphtho[2,3-d]imidazol-3-yl)piperidine-1-carboxylate] | 7200 | 750 | 
16 | C[C@@H](COC(=O)N1CCC(n2c(=O)[nH]c3ccccc32)CC1)N(Cc1ccccc1)Cc1ccccn1 [Compound 140, (S)-2-(benzyl(pyridin-2-ylmethyl)amino)propyl 4-(2-oxo-2,3-dihydro-1H-benzo[d]imidazol-1-yl)piperidine-1-carboxylate hydrochloride] | 3860 | 1800 | 
17 | C[C@@H](COC(=O)N1CCC(n2c(=O)n(Cc3ccccc3)c3ccccc32)CC1)N(Cc1ccccc1)Cc1ccccc1 [Compound 71, (S)-2-(dibenzylamino)propyl 4-(1-benzyl-1,2-dihydro-2-oxobenzo[d]imidazol-3-yl)piperidine-1-carboxylate] | 770 | 1760 | 
18 | C[C@@H](COC(=O)NCCCn1c(=O)[nH]c2ccccc21)N(Cc1ccccc1)Cc1ccccc1 [Compound 6, (S)-2-(dibenzylamino)propyl 3-(1,2-dihydro-2-oxobenzo[d]imidazol-3-yl)propylcarbamate] | 16600 | 381 | 
19 | C[C@@H](CNC(=S)N1CCC(n2c(=O)[nH]c3ccccc32)CC1)N(Cc1ccccc1)Cc1ccccc1 [Compound 91, N-((S)-2-(dibenzylamino)propyl)-4-(1,2-dihydro-2-oxobenzo[d]imidazol-3-yl)piperidine-1-carbothioamide] | 2710 | 7500 | 
20 | O=C(OC[C@H](c1ccccc1)N(Cc1ccccc1)Cc1ccccc1)N1CCC(n2c(=O)[nH]c3ccccc32)CC1 [Compound 112, (S)-2-(dibenzylamino)-2-phenylethyl 4-(1,2-dihydro-2-oxobenzo[d]imidazol-3-yl)piperidine-1-carboxylate] | 500 | 3750 | 
21 | O=C(OCCN(Cc1ccccc1)Cc1ccnc2ccccc12)N1CCC(n2c(=O)[nH]c3ccccc32)CC1 [Compound 131, 2-(benzyl(quinolin-4-ylmethyl)amino)ethyl 4-(2-oxo-2,3-dihydro-1H-benzo[d]imidazol-1-yl)piperidine-1-carboxylate hydrochloride] | 2950 | 1050 | 
22 | O=C(CCCC[C@@H]1SC[C@@H]2NC(=O)N[C@@H]21)NCCn1c(=O)n(C2CCN(C(=O)OC[C@H](Cc3ccccc3)N(Cc3ccccc3)Cc3ccccc3)CC2)c2ccccc21 [Compound 76, (S)-2-(dibenzylamino)-3-phenylpropyl 4-(3-(2 aminoethyl)-2-oxo-2,3-dihydro-1H-benzo[d]imidazol-1-yl)piperidine-1-carboxylate D-biotin amid] | 480 | 2600 | 
23 | C[C@@H](COC(=O)N1CCC(n2c(-c3ccccc3)nc3ccccc32)CC1)N(Cc1ccccc1)Cc1ccccc1 [Compound 153, (S)-2-(dibenzylamino)propyl 4-(2-phenyl-1H-benzo[d]imidazol-1-yl)piperidine-1-carboxylate] | 2330 | 3750 | 
24 | COc1cccc(CN(CCOC(=O)N2CCC(n3c(=O)[nH]c4ccccc43)CC2)Cc2ccccc2)c1 [Compound 122, 2-(benzyl(3-methoxybenzyl)amino)ethyl 4-(2-oxo-2,3-dihydro-1H-benzo[d]imidazol-1-yl)piperidine-1-carboxylate hydrochloride] | 3720 | 1750 | 
25 | C[C@@H](COC(=O)N1CCC(n2c(=O)n(-c3ccccc3)c3ccccc32)CC1)N(Cc1ccccc1)Cc1ccccc1 [Compound 75, (S)-2-(dibenzylamino)propyl 4-(1,2-dihydro-2-oxo-1-phenylbenzo[d]imidazol-3-yl)piperidine-1-carboxylate] | 2290 | 3500 | 
26 | O=c1[nH]c2ccccc2n1C1CCN(CCCN(Cc2ccccc2)Cc2ccccc2)CC1 [Compound 49, 1-(1-(3-(dibenzylamino)propyl)piperidin-4-yl)-1H-benzo[d]imidazol-2(3H)-one] | 1270 | 800 | 
27 | C[C@@H](COC(=O)N1CCC(n2c(=O)[nH]c3ccccc32)CC1)N(Cc1ccccc1)Cc1cc2ccccc2c2ccccc12 [Compound 137, (S)-2-(benzyl(phenanthren-9-ylmethyl)amino)propyl 4-(2-oxo-2,3-dihydro-1H-benzo[d]imidazol-1-yl)piperidine-1-carboxylate hydrochloride] | 1610 | 700 | 
28 | C[C@@H](COC(=O)N1CCC(N(c2ccccc2)S(=O)(=O)c2cccc3cccnc23)CC1)N(Cc1ccccc1)Cc1ccccc1 [Compound 160, (S)-2-(dibenzylamino)propyl 4-(N-phenylquinolin-8-ylsulfonamido)piperidine-1-carboxylate] | 1060 | 2700 | 
29 | CCN(CCOC(=O)N1CCC(n2c(=O)[nH]c3ccccc32)CC1)c1ccccc1 [Compound 41, 2-(ethyl(phenyl)amino)ethyl 4-(2-oxo-2,3-dihydro-1H-benzo[d]imidazol-1-yl)piperidine-1-carboxylate] | 24400 | 1800 | 
30 | O=C(OCCN(Cc1ccccc1)Cc1ccccc1OCc1ccccc1)N1CCC(n2c(=O)[nH]c3ccccc32)CC1 [Compound 99, 2-(benzyl(2-(benzyloxy)benzyl)amino)ethyl 4-(2-oxo-2,3-dihydro-1H-benzo[d]imidazol-1-yl)piperidine-1-carboxylate] | 842 | 3500 | 
